Assays:
[1] = molecular target: T1, Melanin-concentrating hormone receptor 1 (Homo sapiens, UniProt Q99705); assay: Inhibition of human melanin concentrating hormone receptor 1
[2] = Area under curve(0-6 h) for the compound administered orally at 10 mg/kg in rat; format: ADME, organism-based; design: time < 6 hr, dose 10 mg/kg, route oral; settings: in vivo, po
[3] = molecular target: Sodium-dependent serotonin transporter (Rattus norvegicus, UniProt P31652); assay: Inhibition of 5-hydroxytryptamine reuptake by serotonin transporter
Mus musculus [4] = assay: Oral administration (30 mg/kg) required to reduced food intake relative to control at 24 hr post dose; format: functional
Mus musculus [5] = assay: Oral administration (30 mg/kg) required to reduced food intake relative to control at 4 hr post dose; format: functional
Rattus norvegicus [6] = assay: Ability (3 mg/kg) required to produce a dose dependent decrease in food intake; format: functional
Rattus norvegicus [7] = assay: Ability (10 mg/kg) required to suppression the body weight gain relative to control; format: functional
Rattus norvegicus [8] = assay: Ability (3 mg/kg) required to suppression the body weight gain relative to control; format: functional
Mus musculus [9] = assay: Oral administration (30 mg/kg) required to reduced food intake relative to control at 6 hr post dose; format: functional
Rattus norvegicus [10] = assay: Ability (10 mg/kg) required to produce a dose dependent decrease in food intake; format: functional
[11] = molecular target: T1, Melanin-concentrating hormone receptor 1; assay: Inhibition of calcium influx into cells expressing hMCH-R1 in FLIPR assay; format: functional

T1 sequence (Q99705 whole entry): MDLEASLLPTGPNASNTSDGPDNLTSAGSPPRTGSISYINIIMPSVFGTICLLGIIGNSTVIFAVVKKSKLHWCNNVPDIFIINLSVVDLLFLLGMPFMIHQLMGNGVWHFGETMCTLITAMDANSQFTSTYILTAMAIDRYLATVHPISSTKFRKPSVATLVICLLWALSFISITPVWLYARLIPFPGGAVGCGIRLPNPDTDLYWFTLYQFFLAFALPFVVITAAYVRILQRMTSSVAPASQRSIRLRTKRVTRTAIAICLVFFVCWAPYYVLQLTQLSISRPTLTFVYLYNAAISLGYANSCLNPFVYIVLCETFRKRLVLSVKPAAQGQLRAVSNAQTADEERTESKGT
Chain of Sodium-dependent serotonin transporter (P31652 whole entry): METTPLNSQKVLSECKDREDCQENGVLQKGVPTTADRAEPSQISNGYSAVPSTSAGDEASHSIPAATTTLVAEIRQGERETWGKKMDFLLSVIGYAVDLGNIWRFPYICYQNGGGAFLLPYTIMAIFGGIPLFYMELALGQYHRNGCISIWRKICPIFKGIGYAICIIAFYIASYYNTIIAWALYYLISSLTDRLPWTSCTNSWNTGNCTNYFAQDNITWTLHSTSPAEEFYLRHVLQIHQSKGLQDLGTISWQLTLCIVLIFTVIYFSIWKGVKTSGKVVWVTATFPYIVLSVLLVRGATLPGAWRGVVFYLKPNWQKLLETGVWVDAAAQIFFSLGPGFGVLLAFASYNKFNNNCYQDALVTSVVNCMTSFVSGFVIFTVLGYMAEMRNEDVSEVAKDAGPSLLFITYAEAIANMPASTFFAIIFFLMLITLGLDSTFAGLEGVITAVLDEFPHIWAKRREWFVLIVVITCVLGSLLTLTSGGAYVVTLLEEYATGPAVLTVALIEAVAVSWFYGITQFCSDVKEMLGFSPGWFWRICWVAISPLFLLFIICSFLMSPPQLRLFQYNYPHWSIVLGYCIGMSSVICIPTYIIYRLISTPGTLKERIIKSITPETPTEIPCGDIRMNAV

| SMILES | Ki [1] [nM] | AUC(0-t) at 6 h [2] [µg·h/mL] | Kb [11] [nM] | also measured |
| --- | --- | --- | --- | --- |
| CN(C)CCN(C(=O)Nc1ccc(C(F)(F)F)c(F)c1)c1ccc(-c2cccc(C#N)c2)cc1 | 6 | 4.8 |  |  |
| CN1CCN(CCN(C(=O)Nc2ccc(C(F)(F)F)c(F)c2)c2ccc(-c3cccc(C#N)c3)cc2)CC1 | 8.2 | 0.542 |  | Ki [3]: > 1000 nM |
| N#Cc1cccc(-c2ccc(N(CCN3CC[C@@H](O)C3)C(=O)Nc3ccc(C(F)(F)F)c(F)c3)cc2)c1 | 8.9 | 5.47 | 2 | Food intake (Mus musculus [4]): 14%; Food intake (Mus musculus [5]): 16%; Food intake (Rattus norvegicus [6]): 16.9%; Body weight gain (Rattus norvegicus [7]): 2.2 g; Body weight gain (Rattus norvegicus [8]): 1.2 g; Food intake (Mus musculus [9]): 17%; Food intake (Rattus norvegicus [10]): 13.2% |
| CNCCN(C(=O)Nc1ccc(F)c(Cl)c1)c1ccc(-c2cccc(C#N)c2)cc1 | 6 |  | 6.2 |  |
| N#Cc1cccc(-c2ccc(N(CCN3CC[C@H](O)C3)C(=O)Nc3ccc(C(F)(F)F)c(F)c3)cc2)c1 | 7.3 | 1.45 |  |  |
| CC(C)C(=O)N1CCC(N(C(=O)Nc2ccc(F)c(C(F)(F)F)c2)c2ccc(-c3cccc(C#N)c3)cc2)CC1 | 374 |  |  |  |
| CN(C)CCN(C(=O)Nc1cc(Cl)cc(Cl)c1)c1ccc(-c2cccc(C#N)c2)cc1 | 19 |  |  |  |
| N#Cc1cccc(-c2ccc(N(CCN3CCCC3)C(=O)Nc3ccc(C(F)(F)F)c(F)c3)cc2)c1 |  | 0.967 |  |  |
| N#Cc1cccc(-c2ccc(N(CCN3CC[C@@H](O)C3)C(=O)Nc3cc(Cl)cc(Cl)c3)cc2)c1 | 11 | 1.85 |  |  |
| CCS(=O)(=O)N1CCC(N(C(=O)Nc2ccc(F)c(C(F)(F)F)c2)c2ccc(-c3cccc(C#N)c3)cc2)CC1 | 166 |  |  |  |
| N#Cc1cccc(-c2ccc(N(CCN3CC[C@@H](O)C3)C(=O)Nc3ccc(F)c(C(F)(F)F)c3)cc2)c1 | 1.8 | 2.79 | 8 |  |
| N#Cc1cccc(-c2ccc(N(CCN3CC[C@@H](O)C3)C(=O)Nc3ccc(F)c(Cl)c3)cc2)c1 | 7.1 | 1.08 |  |  |
| CN(C)CCN(C(=O)Nc1ccc(F)c(Cl)c1)c1ccc(-c2cccc(C#N)c2)cc1 | 3.3 | 1.95 | 3.1 | Ki [3]: 1080 nM |
